Results as given in patent publication US20090312336A1, “DIHYDROPTERIDINE COMPOUNDS AS ANTI PROLIFERATIVE AGENTS” (ASTRAZENECA AB, priority 2006, published 2009).
pIC50: −log10 of the molar value. Like-named read-outs stand apart in the source and are kept apart here.

Columns and labels:
[1] = target: T1, recombinant Plk1 (Homo sapiens, UniProt P53350); assay: In vitro Plk1 enzyme assay (SPA); assay type: biochemical
T1 construct: The full-length Plk1 protein is expressed in insect cells as an N-terminal 6His tag fusion; 6His (N); made in house; host or cells: insect cells (Plk1); E. coli (GST-Cdc25C substrate)
T1 sequence (P53350 whole entry, the tested form may be a part): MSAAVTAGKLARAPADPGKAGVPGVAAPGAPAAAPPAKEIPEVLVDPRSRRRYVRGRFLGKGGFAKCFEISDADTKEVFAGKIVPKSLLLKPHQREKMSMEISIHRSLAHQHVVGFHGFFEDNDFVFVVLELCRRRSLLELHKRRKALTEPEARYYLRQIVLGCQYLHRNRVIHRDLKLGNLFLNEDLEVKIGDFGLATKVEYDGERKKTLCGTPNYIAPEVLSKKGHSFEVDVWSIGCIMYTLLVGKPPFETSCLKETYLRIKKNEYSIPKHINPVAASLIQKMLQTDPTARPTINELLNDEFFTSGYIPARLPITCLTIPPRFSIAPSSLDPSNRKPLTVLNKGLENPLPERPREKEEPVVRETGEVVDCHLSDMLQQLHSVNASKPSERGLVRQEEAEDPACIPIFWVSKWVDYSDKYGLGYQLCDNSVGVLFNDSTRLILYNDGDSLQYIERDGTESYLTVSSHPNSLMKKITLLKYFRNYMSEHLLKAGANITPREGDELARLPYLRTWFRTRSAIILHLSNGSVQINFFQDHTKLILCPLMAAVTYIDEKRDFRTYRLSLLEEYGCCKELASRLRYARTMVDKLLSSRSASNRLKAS
From the text: The assay uses Scintillation Proximity Assay (SPA) technology (Antonsson et al., Analytical Biochemistry, 1999, 267: 294-299) to determine the ability of test compounds to inhibit phosphorylation by recombinant Plk1. The full-length Plk1 protein is expressed in insect cells as an N-terminal 6His tag fusion and purified by standard Nickel chelate purification techniques using the His tag.
The amino terminal fragment of Cdc25C (encoding residues 1-165) is expressed in E. coli as a GST fusion and purified using the GST tag by standard purification techniques.
Test compounds were prepared as 10 mM stock solutions in dimethyl sulphoxide (DMSO) and diluted into water as required to give a range of final assay concentrations. Aliquots (5 μl) of each compound dilution were dispensed into a well of a 384-well flat bottom white polystyrene plate (Matrix, Catalogue No. 4316). A 35 μl mixture of recombinant purified Plk1 enzyme (12 ng/well), purified GST-Cdc25C (150 ng/well), adenosine triphosphate (ATP; 64 nM), ^33P-labelled adenosine triphosphate (^33P-ATP; 60 nCi/well) in a buffer solution [comprising 50 mM HEPES pH7.5 buffer, 10 mM manganese chloride (MnCl2), 1 mM dithiothreitol (DTT), 1 mg/ml bovine serum albumin (BSA), 100 μM sodium vanadate (Na3VO4), 100 μM sodium fluoride (NaF) and 10 mM sodium glycerophosphate] was added and the reactions incubated at ambient temperature for 90 minutes.
Reactions were stopped by addition of EDTA (110 mM) and the Cdc25C substrate captured via its GST tag to anti-GST antibody (Molecular Probes, Cat No A-5800) coated Protein A PVT SPA beads (Amersham Biosciences, Catalogue No. RPQ0019; 250 μg/well) in 50 mM HEPES pH7.5 buffer containing 0.05% (w/v) sodium azide and incubated for up to 2 hours, followed by the addition of 20 μl of 4M caesium chloride (final assay concentration of 1M). Plates were then left in the dark overnight before counting on a Packard TopCount NXT.
Radiolabelled phosphorylated substrate is formed in situ as a result of Plk1 mediated phosphorylation. The SPA beads contain a scintillant that can be stimulated to emit light. This stimulation only occurs when a radiolabelled phosphorylated substrate is bound to the surface of the coated SPA bead causing the emission of blue light that can be measured on a scintillation counter. Accordingly, the extent of Plk1 mediated Cdc25C phosphorylation was assessed. The raw assay data were then analysed by non-linear regression analysis and Plk1 enzyme inhibition for a given test compound is expressed as an IC50 value.

[2] = test system: human colon tumour cell line HT29; assay: Cellular assay: phosphohistone H3 mitotic marker in HT29 cells; assay type: cell-based; settings: HT-29, 24 h, phosphohistone H3 staining
Procedure: Chromosome condensation in mitosis is accompanied by phosphorylation of histone H3 on serine 10. Dephosphorylation begins in anaphase and ends at early telophase, thus histone H3 serine 10 phosphorylation acts as an excellent mitotic marker and is used to determine the ability of compounds of the present invention to block cells in mitosis.
Cells of the human colon tumour cell line HT29 were seeded into 96 well black plates (Costar, Catalogue No 3904) in phenol red free Dulbecco's Modified Eagles Medium (DMEM) supplemented with 10% (v/v) FCS and 1% (v/v) L-Glutamine and incubated overnight at 37° C. […] Cells were again washed with PBS and incubated with 50 μl secondary antibody (1:1000 Alexa Fluor 488 goat anti-rabbit (Molecular Probes Cat No A-11008) and Hoechst (1:10000) diluted in PBS 0.05% (v/v) Tween 20 and left for 1 hour at room temperature in the dark. Cells were washed with PBS then covered with fresh PBS and stored at 4° C. until analysis. Images are acquired and analysed in an automated manner using the Cellomics ArrayScan II or VTi. In this assay both hoechst and phosphohistone H3 staining are measured. Hoechst staining generates a valid cell count while phosphohistone H3 staining determines the number of mitotic cells. […] The raw assay data were analysed by non-linear regression analysis and used to determine an IC50 value for each compound.

[3] = Plk1 enzyme, class symbols for IC50, read-out: Kinase Inhibition

Row | Compound | pIC50 [1, 3] | pIC50 ([1]; Plk1 enzyme assay, read-out: IC50 value in the enzyme assay) | pIC50 [2]
1 | CC[C@@H]1CN(C)c2cnc(Nc3ccc(CNCC(C)(C)CN(C)C)cc3OC)nc2N1C1CCCC1 [Example 3, N-[[4-[[(7R)-8-Cyclopentyl-7-ethyl-5-methyl-6,7-dihydropteridin-2-yl]amino]-3-methoxy-phenyl]methyl]-N′,N′,2,2-tetramethyl-propane-1,3-diamine] | 4.82 to 5.22 |  | 
2 | CC[C@@H]1CN(C)c2cnc(Nc3ccc(CNC4CCN(C)CC4)c(F)c3)nc2N1C1CCCC1 [Example 4, (7R)-8-Cyclopentyl-7-ethyl-N-[3-fluoro-4-[[(1-methyl-4-piperidyl)amino]methyl]phenyl]-5-methyl-6,7-dihydropteridin-2-amine] | 5.22 to 5.52 |  | 
3 | COc1cc(C(=O)NC2CCN(C)CC2)ccc1Nc1ncc2c(n1)N(C1CCCC1)[C@H](C1CC1)CN2C [Example 6, 4-{[(7R)-8-Cyclopentyl-7-cyclopropyl-5-methyl-5,6,7,8-tetrahydropteridin-2-yl]amino}-3-methoxy-N-(1-methylpiperidin-4-yl)benzamide] | > 5.52 | 6.16 | 6.59
4 | CCC[C@@H]1CN(C)c2cnc(Nc3ccc(C(=O)NC4CCN(C)CC4)cc3OC)nc2N1C1CCCC1 [Example 7, 4-{[(7R)-8-Cyclopentyl-5-methyl-7-propyl-5,6,7,8-tetrahydropteridin-2-yl]amino}-3-methoxy-N-(1-methylpiperidin-4-yl)benzamide] | > 5.52 |  | 
5 | CCOc1cc(C(=O)NC2CCN(C)CC2)ccc1Nc1ncc2c(n1)N(C1CCCC1)[C@H](CC)CN2C [Example 8, 4-[[(7R)-8-Cyclopentyl-7-ethyl-5-methyl-6,7-dihydropteridin-2-yl]amino]-3-ethoxy-N-(1-methyl-4-piperidyl)benzamide] | > 5.52 |  | 

Second part, the compound after the results:

Row | pIC50 [1, 3] | pIC50 ([1]; Plk1 enzyme assay, read-out: IC50 value in the enzyme assay) | pIC50 [2] | Compound
6 | > 5.52 |  |  | CC[C@@H]1CN(C)c2cnc(Nc3ccc(C(=O)NC4CCN(C)CC4)cc3OC)nc2N1C1CCCC1 [Example 1, 4-[[(7R)-8-Cyclopentyl-7-ethyl-5-methyl-6,7-dihydropteridin-2-yl]amino]-3-methoxy-N-(1-methyl-4-piperidyl)benzamide]
7 | > 5.52 |  |  | CC[C@@H]1CN(C)c2cnc(Nc3ccc(C(=O)NCC(C)(C)CN(C)C)cc3OC)nc2N1C1CCCC1 [Example 2, 4-[[(7R)-8-Cyclopentyl-7-ethyl-5-methyl-6,7-dihydropteridin-2-yl]amino]-N-(3-dimethylamino-2,2-dimethyl-propyl)-3-methoxy-benzamide]
8 | > 5.52 |  |  | CC[C@@H]1CN(CC)c2cnc(Nc3ccc(C(=O)NC4CCN(C)CC4)cc3OC)nc2N1C1CCCC1 [Example 5, 4-[[(7R)-8-Cyclopentyl-5,7-diethyl-6,7-dihydropteridin-2-yl]amino]-3-methoxy-N-(1-methyl-4-piperidyl)benzamide]
